In brackets after ≈: the same amount, converted by molar mass.
Assays:
E. coli CA8000 = experiment: Minimum inhibitory concentration (cross resistance); assay type: cell-based; details: Escherichia coli; strain CA8000
Text: (§1) The minimum inhibitory concentrations (MIC) of the quinolone and fluoroquinolone antibiotics were quantified for different strains and compared among each other. The differential response indicate the measure of resistance and sensitivity. Higher MIC indicate more resistance.

E. coli DH5a = experiment: as above; assay type: cell-based; details: Escherichia coli; strain DH5a
Text: as §1

E. coli ET8000 [1] = experiment: as above; assay type: cell-based; details: Escherichia coli; strain ET8000
Text: as §1

E. coli NK5819 [2] = experiment: as above; assay type: cell-based; details: Escherichia coli; strain NK5819
Text: as §1

E. coli mutant CA80010 = experiment: as above; assay type: cell-based; details: Escherichia coli, read-out: minimum inhibitory concentration (MIC)
Text: (§2) In order to develop an arteether resistant mutants from an arteether sensitive strains a reverse strategy was applied. Quinoline/fluoroquinolone (Q/FQs) resistant strains were developed spontaneously i.e. screening overnight log phase culture of the Quinolone/fluoroquinolone sensitive i.e. arteether resistant strain (E coli CA 8000) on the poison agar plate of the Q/FQs. The Q/FQ resistant mutants which appeared on the poison agar plates were first purified through single colony purification and then checked for their arteether sensitivity. These arteether sensitive mutants on the contrary when checked for their Q/Fqs resistance they show different level of Q/FQs resistance.
as §1

E. coli mutant CA80012 = experiment: as above; assay type: cell-based; details: Escherichia coli, read-out: minimum inhibitory concentration (MIC)
Text: as §2, §1

E. coli mutant CA8001 = experiment: as above; assay type: cell-based; details: Escherichia coli; strain CA8001
Text: as §2, §1

E. coli mutant CA8002 = experiment: as above; assay type: cell-based; details: Escherichia coli; strain CA8002
Text: as §2, §1

E. coli mutant CA8003 = experiment: as above; assay type: cell-based; details: Escherichia coli; strain CA8003
Text: as §2, §1

E. coli mutant CA8005 = experiment: as above; assay type: cell-based; details: Escherichia coli; strain CA8005
Text: as §2, §1

E. coli mutant CA8006 = experiment: as above; assay type: cell-based; details: Escherichia coli; strain CA8006
Text: as §2, §1

E. coli mutant CA8007 = experiment: as above; assay type: cell-based; details: Escherichia coli; strain CA8007
Text: as §2, §1

E. coli mutant CA8009 = experiment: as above; assay type: cell-based; details: Escherichia coli; strain CA8009
Text: as §2, §1

E. coli CA8012 = experiment: Phenotype of strain (resistance or sensitivity); assay type: cell-based, Escherichia coli; design: key: R: resistance; S: sensitivity; details: gyrA GGT-GAT(242), Gly-Asp 81
Text: as §2
(§3) The strains of E coli of the investigation, their phenotypes in terms of a-arteether (resistance or sensitivity, superscript R or S) or antibiotic resistance or sensitivity, change in nucleotide position of the gyrase A gene leading to the phenotype, corresponding amino acid change in the protein and the position of amino acid change are being described. Always the phenotype a-arteether resistance is accompanied with quinolone or fluoroquinolone sensitivity and vice versa.

[3] = tested on: E. coli mutant strain Rev 4; experiment: Phenotype of revertant (resistance or sensitivity); assay type: cell-based, Escherichia coli; design: key: R: resistance; S: sensitivity; details: gyrA GAT-GGT(242), Asp-Gly 81
Text: as §3
(§4) The commercially available strain E. coli DH5[…] (Stratagene, USA) is sensitive to […]-arteether but resistant to quinolone/fluoroquinolone due to a mutation at 87th aminoacid position of the gyr A protein (Aspartic acid of wild type is changed to Aspargine) with corresponding change in the codon GAC to AAC. This strain was used to screen […]-arteether resistant mutations. The observation was startling as the […]-arteether resistant mutants are the exact reversion at the 87th position of the aminoacid of gyrase A subunit i.e. Aspargine changed to aspartic acid, with corresponding change in the codon AAC to GAC.

[4] = tested on: E. coli mutant strain Rev 5; experiment: Phenotype of revertant (resistance or sensitivity); assay type: cell-based, Escherichia coli; design: key: R: resistance; S: sensitivity; details: gyrA GAT-GGT(242), Asp-Gly 81
Text: as §3, §4

[5] = tested on: E. coli mutant strain Rev 6; experiment: Phenotype of revertant (resistance or sensitivity); assay type: cell-based, Escherichia coli; design: key: R: resistance; S: sensitivity; details: gyrA GAT-GGT(242), Asp-Gly 81
Text: as §3, §4

[6] = tested on: E. coli mutant strain Rev. 1; experiment: Phenotype of revertant (resistance or sensitivity); assay type: cell-based, Escherichia coli; design: key: R: resistance; S: sensitivity; details: gyrA GAT-GGT(242), Asp-Gly 81
Text: as §3, §4

[7] = tested on: E. coli mutant strain Rev. 2; experiment: Phenotype of revertant (resistance or sensitivity); assay type: cell-based, Escherichia coli; design: key: R: resistance; S: sensitivity; details: gyrA GAT-GGT(242), Asp-Gly 81
Text: as §3, §4

[8] = tested on: E. coli mutant strain Rev. 3; experiment: Phenotype of revertant (resistance or sensitivity); assay type: cell-based, Escherichia coli; design: key: R: resistance; S: sensitivity; details: gyrA GAT-GGT(242), Asp-Gly 81
Text: as §3, §4

E. coli DH5α = experiment: Phenotype of strain (resistance or sensitivity); assay type: cell-based, Escherichia coli; design: key to Phenotype: R: resistance; S: sensitivity
Experimental: As a result of this mutation, the said strain is also resistant to a drug called nalidixic acid.
(§5) To ascertain the involvement of gyrA mutation, another E.coli strain NK 5819 which is also GyrA″ and nalidixic acid resistant was tested for arteether sensitivity. As expected, strain NK5819 was also sensitive only to a-isomer of arteether. […] The assays for arteether sensitivity was performed by the standard single disk diffusion method (Bauer et al, 1966). As a next step, we isolated gyrA mutants of E.coli strain CA 8000, which is otherwise Gyr+ and nalidixic acid sensitive. The gyrA mutants of CA8000 were isolated as nalidixic acid resistant colonies (20 ug/ml), after mutagenic treatment with NTG ([…]). The isolated CA8000 gyrA mutants were also sensitive only to a isomer of arteether. […] To define precisely the involvement of gyr genes only in the a-arteether sensitivity, we utilised two recombinant clones (pMK 90 and pMK47 containing functional gyr A and gyrB genes respectively) in trans-complementation assays. For this purpose, we mobilized the plasmid clones into the E.coli gyr mutant strains. The resulting transformants were now nalidixic acid sensitive and a-arteether resistant. This constituted the direct evidence supporting our observation that DNA gyrase enzyme alone is involved in conferring a-arteether sensitivity to E.coli strain. […] DNA gyrase enzyme is essential for the bacterial growth. This enzyme transiently breaks the DNA strands and introduces negative superhelical turns in an ATP-dependent process. The E.coli DNA gyrase enzyme is a tetramer with two subunits A and B. These two subunits are nalidixic acid and coumermycin sensitive respectively (U.S. Pat. No. 6,127,405 and a co-pending patent).
as §3

E. coli ET8000 [9] = experiment: Phenotype of strain (resistance or sensitivity); assay type: cell-based, Escherichia coli; design: key: R: resistance; S: sensitivity; details: gyrA GAC-AAC(259), Asp-Asn 87
Text: as §3

E. coli NK5819 [10] = experiment: Phenotype of strain (resistance or sensitivity); assay type: cell-based, Escherichia coli; design: key to Phenotype: R: resistance; S: sensitivity
Experimental: as §5, §3

E. coli CA8001 = experiment: Phenotype of strain (resistance or sensitivity); assay type: cell-based, Escherichia coli; design: key: R: resistance; S: sensitivity; details: gyrA GGT-TGT(241), Gly-Cys 81
Text: as §2, §3

E. coli CA8002 = experiment: Phenotype of strain (resistance or sensitivity); assay type: cell-based, Escherichia coli; design: key: R: resistance; S: sensitivity; details: gyrA GGT-TGT(241), Gly-Cys 81
Text: as §2, §3

E. coli CA8003 = experiment: Phenotype of strain (resistance or sensitivity); assay type: cell-based, Escherichia coli; design: key: R: resistance; S: sensitivity; details: gyrA GAC-GGC(260), Asp-Gly 87
Text: as §2, §3

E. coli CA8005 = experiment: Phenotype of strain (resistance or sensitivity); assay type: cell-based, Escherichia coli; design: key: R: resistance; S: sensitivity; details: gyrA GAC-GGC(260), Asp-Gly 87
Text: as §2, §3

E. coli CA8006 = experiment: Phenotype of strain (resistance or sensitivity); assay type: cell-based, Escherichia coli; design: key: R: resistance; S: sensitivity; details: gyrA TCG-TTG(248), Ser-Leu 83
Text: as §2, §3

E. coli CA8007 = experiment: Phenotype of strain (resistance or sensitivity); assay type: cell-based, Escherichia coli; design: key: R: resistance; S: sensitivity; details: gyrA TCG-TTG(248), Ser-Leu 83
Text: as §2, §3

E. coli CA8009 = experiment: Phenotype of strain (resistance or sensitivity); assay type: cell-based, Escherichia coli; design: key: R: resistance; S: sensitivity; details: gyrA TCG-TTG(248), Ser-Leu 83
Text: as §2, §3

E. coli CA8010 = experiment: Phenotype of strain (resistance or sensitivity); assay type: cell-based, Escherichia coli; design: key: R: resistance; S: sensitivity; details: gyrA TCG-TTG(248), Ser-Leu 83
Text: as §2, §3

[11] = tested on: E. coli mutant strain AR 9 CA8014; experiment: Phenotype of revertant (resistance or sensitivity); assay type: cell-based, Escherichia coli; design: key: R: resistance; S: sensitivity; details: gyrA AAC-GAC(259), Asn-Asp 87
Text: as §3, §4

[12] = tested on: E.coli strain CA 8000 (Gyr+); experiment: Phenotype of strain (resistance or sensitivity); assay type: cell-based, Escherichia coli; details: E.coli CA 8000 (Gyr+)
Experimental: as §5, with “This enzyme transiently breaks the DNA strands and introduces negative superhelical turns in an ATP-dependent process. The E.coli DNA gyrase enzyme is a tetramer with two subunits A and B. These two subunits are nalidixic acid and coumermycin sensitive respectively (U.S. Pat. No. 6,127,405 and a co-pending patent).” left out

[13] = tested on: E.coli gyr mutant strains transformed with pMK 90 and pMK47 (functional gyr A and gyrB genes); experiment: Trans-complementation assay; assay type: cell-based, Escherichia coli; details: gyr mutant strains carrying pMK 90 / pMK47
Experimental: as §5, with “This enzyme transiently breaks the DNA strands and introduces negative superhelical turns in an ATP-dependent process. The E.coli DNA gyrase enzyme is a tetramer with two subunits A and B. These two subunits are nalidixic acid and coumermycin sensitive respectively (U.S. Pat. No. 6,127,405 and a co-pending patent).” left out

| SMILES | MIC (E. coli CA8000) [µg/mL] | MIC (E. coli DH5a) [µg/mL] | MIC (E. coli ET8000 [1]) [µg/mL] | MIC (E. coli NK5819 [2]) [µg/mL] | MIC (E. coli mutant CA80010) [µg/mL] | MIC (E. coli mutant CA80012) [µg/mL] | MIC (E. coli mutant CA8001) [µg/mL] | MIC (E. coli mutant CA8002) [µg/mL] | MIC (E. coli mutant CA8003) [µg/mL] | MIC (E. coli mutant CA8005) [µg/mL] | MIC (E. coli mutant CA8006) [µg/mL] | MIC (E. coli mutant CA8007) [µg/mL] | MIC (E. coli mutant CA8009) [µg/mL] | other results |
| --- | --- | --- | --- | --- | --- | --- | --- | --- | --- | --- | --- | --- | --- | --- |
| O=C(O)c1cn(C2CC2)c2cc(N3CCNCC3)c(F)cc2c1=O [Ciprofloxacin] | < 0.05 | 0.1 (≈ 0.302 µM) | 0.5 (≈ 1.51 µM) | < 0.1 | 0.1 (≈ 0.302 µM) | 0.1 (≈ 0.302 µM) | < 0.1 | < 0.1 | < 0.1 | 0.1 (≈ 0.302 µM) | 0.1 (≈ 0.302 µM) | 0.1 (≈ 0.302 µM) | 0.1 (≈ 0.302 µM) |  |
| CCn1cc(C(=O)O)c(=O)c2cc(F)c(N3CCNC(C)C3)c(F)c21 (centres unmarked) [Lomefloxacin] | < 0.05 | 0.5 (≈ 1.42 µM) | > 2 | < 0.5 | 1.5 (≈ 4.27 µM) | 1.5 (≈ 4.27 µM) | 1.5 (≈ 4.27 µM) | 1.5 (≈ 4.27 µM) | 2.5 (≈ 7.12 µM) | 0.5 (≈ 1.42 µM) | 1.5 (≈ 4.27 µM) | 1.5 (≈ 4.27 µM) | 1.5 (≈ 4.27 µM) | Phenotype (E. coli CA8012): R; Phenotype [3]: S; Phenotype [4]: S; Phenotype [5]: S; Phenotype [6]: S; Phenotype [7]: S; Phenotype [8]: S |
| CCn1cc(C(=O)O)c(=O)c2ccc(C)nc21 [Nalidixic acid] | 2 (≈ 8.61 µM) | 50 (≈ 215 µM) | 100 (≈ 431 µM) | 20 (≈ 86.1 µM) | 100 (≈ 431 µM) | 100 (≈ 431 µM) | 150 (≈ 646 µM) | 150 (≈ 646 µM) | 150 (≈ 646 µM) | 150 (≈ 646 µM) | 150 (≈ 646 µM) | 100 (≈ 431 µM) | 100 (≈ 431 µM) | Phenotype (E. coli DH5α; DH5α, gyrA GAC-AAC(259), Asp-Asn 87): R; Sensitivity or resistance of the strain (words) (E. coli DH5α; E.coli DH5a (gyrA 96; Asp87Asn)): resistant; Phenotype (E. coli ET8000 [9]): R; Sensitivity or resistance of the strain (words) (E. coli NK5819 [10]; E.coli NK 5819 (GyrA mutant)): resistant; Phenotype (E. coli NK5819 [10]; NK5819, gyrA GAC-TAC(259), Asp-Gly 87): R; Phenotype (E. coli CA8001): R; Phenotype (E. coli CA8002): R; Phenotype (E. coli CA8003): R; Phenotype (E. coli CA8005): R; Phenotype (E. coli CA8006): R; Phenotype (E. coli CA8007): R; Phenotype (E. coli CA8009): R; Phenotype (E. coli CA8010): R; Phenotype [11]: S; Sensitivity or resistance of the strain (words) [12]: sensitive; Sensitivity or resistance of transformants [13]: sensitive |

Reference: patent US7510836B2, “Alpha arteether resistance domain” (priority 2003, dated 2009)
